US20020111314A1, “Novel stimulation of gene expression and protein synthesis of heat shock protein 72/73 (Hsp 70)” (The Trustees of Columbia University, priority 1995, published 2002)
Numbered stars: 1 amine (or outer) side, 2 acyl side, 3 side chain; on linkers, the order of the positions; unused ones are H or OH. Bridge positions count the residues as written; N and C are the ends. Square brackets hold non-standard residues; d marks the D form. Peptide text beside a SMILES is read from it. I, II: the chains in the order shown. * marks the point of attachment. Actinocin(9to1) = Cc1c2oc3c(C)ccc(C(=O)[*:1])c3nc-2c(C(=O)[*:2])c(N)c1=O; Sta = CC(C)C[C@H](N)[C@@H](O)CC(=O)O; NMeV = CN[C@H](C(=O)O)C(C)C; Isovaleryl = CC(C)CC(=O)*; Cbz = O=C(OCc1ccccc1)*; Sar = CNCC(=O)O

Tests used:
Format in all cases: cell-based, human
Hsp70 = Hsp70 induction in HepG2 cells ([3H]-leucine labeling, denaturing immunoprecipitation); conditions: HepG2; for induction of Hsp70 by protease inhibitors (FIG. 3A): 4 h pre-treatment, ALLN 40, ALLM 40, leupeptin 50, pepstatin A 50, E-64d 25 μg/ml, PMSF 1 mM, aprotinin 100 KIU/ml
Method: HepG2 cells were grown up to 95% confluence and then preincubated for 4 hours in a 37° C. incubator with serum-free minimum essential medium (MEM), followed by radiolabeling with 3H-leucine (150 μCi/ml) dissolved in serum-free, leucine-free medium. Preincubation and labeling medium each contained 1.5% bovine serum albumin (BSA) plus different concentrations of ALLN as indicated. After labeling, cells were collected and lysed, and Hsp70 was immunoprecipitated under denaturing conditions as described under Experimental Details. Cell lysates containing an equal amount of TCA-insoluble radioactivity were used for immunoprecipitation. (A): The immunoprecipitates were analyzed by sodium dodecyl sulfate-polyacryamide gel electrophoresis (SDS-PAGE) and fluorography. Numbers on the left-hand side denote molecular markers. (B): The Hsp70 radioactivity was quantitated by scintillation counting and plotted. All the values were presented as means±SD from three individual culture dishes.
(§1) FIGS. 3A-3B: Effects of the other protease inhibitors on Hsp70 biosynthesis in HepG2 cells. HepG2 cells were preincubated in serum-free MEM containing either 1.5% BSA alone (Control), or BSA plus 40 μg/ml of ALLN, 40 μg/ml of ALLM, 50 μg/ml of leupeptin, 50 μg/ml of pepstatin A, 25 μg/ml of E-64d, 1 mM of phenylmethylsulfonyl fluoride (PMSF), 100 KIU/ml of apotinin, 1 mM of Benzamidine (Benz), 200 μM of calpain inhibitor peptide (CIP). Radiolabeling (in the presence of protease inhibitors), lysis and immunoprecipitation were performed as described in FIG. 1. The Hsp70 specific radioactivity (A) and the amount of total incorporated radioactivity (TCA-cpm) (B) were compared with each other. All the values were presented as the mean±SD from three individual culture dishes.
FIGS. 9A-9B: Effects of proteasome inhibitors on Hsp70 induction. HepG2 cells were preincubated with the proteasome inhibitors MG132 at a final concentration of either 10 μM or 30 μM (A), or lactacystin at 10 μM (B) for 4 hours under conditions described in FIG. 3. These cells were then subjected to radiolabeling (30 min), cell lysis, and immunoprecipitation with anti-Hsp70 antibody. The experiments with MG132 (A) were repeated twice; the effects of lactacystin (B) were studied in triplicate culture dishes.
ALLN, leupeptin, mouse anti-human Hsp72/73 monoclonal antibody, a secondary antibody conjugated with horseradish peroxidase (HRP) (goat anti-rabbit immunoglubin G [IgG]), and rabbit anti-rat IgG antibody were from Boehringer Mannheim Co. Anti-Human Hsp25 and anti-human Hsp60 monoclonal antibodies, ALLM, Calpain inhibitor peptide (CIP), dimethyl sulfoxide (DMSO) and dithiothreitol (DTT) were from Sigma. Human Hsp70 oligonucleotide probe was from Oncogene Science. This oligonucleotide was ^32P labeled at the 5′-end by T4 Kinase, which was from Biolabs. ^32P was from ICN Pharmaceutical Inc. L-[4,5-^3H] leucine was from Amersham Co. Anti-human Bip (immunoglobulin heavy chain binding protein, also called Grp78), anti-human Hsp27, anti-human Hsp60, and anti-human Hsp90 monoclonal antibodies were from Stress Genes. Anti-human Hsp86 and Hsp104 antibodies were from Affinity Bioreagent Inc. Nitrocellular transfer and immobilization membranes were from Schleicher & Schuell, Keene, N.H. RNA extraction kits were from Biotect, Tex. The polyclonal antibody against the human HSF1 protein was a generous gift from Dr. Carl Wu of the National Institute of Health (Rabindran, et al., 1993). Ethylene glycol bis(succunimidylsuccinate) (EGS) was from Pierce. Cbz-leucyl-leucyl-leucinal (MG132) was a gift of Dr. H. Ploegh at the Massachusetts Institute of Technology. All the other tissue culture supplies and chemicals were obtained from supplies as previously described (Dixon, et al., 1991). The HepG2 cell culture conditions were maintained as previously described (Dixon, et al., 1991).

HepG2 cells = experiment: Total incorporation of radiolabel (TCA cpm) as indicator of cell toxicity in HepG2 cells; conditions: MG132 10 or 30 μM, lactacystin 10 μM, data not shown
Method: as §1
Preincubation and labeling media each contained either 1.5% bovine serum albumin (BSA) alone, or BSA plus ALLN (40 μg/ml except as otherwise indicated), or BSA plus other protease inhibitors at concentrations indicated in the figure legends. At the indicated times, cells were removed from the 37° C. incubator and placed on ice, washed with cold phosphate-buffer saline (PBS) twice and lysed with lysis buffer containing 1% Triton X-100 (TX100), 1% deoxycholic acid (DOC) and 0.1% SDS in PBS containing proteinase inhibitors: 2 mM phenylmethylsulfonyl fluoride (PMSF); 2 μg/ml ALLN; 2 μg/ml leupeptin; and 2 μg/ml aprotinin. After a 30 min. incubation with lysis buffer at 4° C., the lysates were centrifuged at 14,000 g in a microcentrifuge for 5 min., and the supernatants were adjusted to 1% SDS concentration and boiled for 5 min. to denature the proteins. 1% TX100 was then added to dilute the lysates to a final concentration of 0.1% SDS. Cell lysates containing equal amounts of trichloroacetic acid (TCA)-insoluble radioactivity were used for immunoprecipitations by incubating with individual monoclonal antibody (1 μg/ml) for 2.5 hours at 4° C. Protein-A Sepharose 4B was added afterwards and the lysates incubated for another 1.5 hours at 4° C. to collect the immunocomplexes. […]

hsp70, i.e. hsp72, mRNA = experiment: Northern blot of hsp70 (hsp72) mRNA in HepG2 cells; conditions: ALLN 40 μg/ml plus actinomycin D 10 μg/ml or cycloheximide 50 μg/ml, 4 hours
Method: After 4 hours treatment at 37° C., cells were harvested. (B). […] The total RNA was prepared, and equal amounts of the samples were loaded and run on a 1% formaldehyde-agarose gel, blotted onto a nylon membrane, and subsequently hybridized with specific synthetic oligonucleotide probes for hsp70 mRNA as described under Experimental Details. The position of 28S and 18S rRNA are shown for reference.
Equal amounts of tRNA samples (10 μg) were size-fractionated on a 1% agarose-formaldehyde gel according to the methods described (Maniatis, et al., 1982) and transferred to a piece of QIAGEN plus nylon membrane. To determine loading and transfer efficiency, RNA was stained with ethidium bromide before and after transfer. The membrane was baked for 30 min. at 80° C. in vacuo (a vacuum) followed by UV cross-linking. It was then incubated for 4 hours at 65° C. in a prehybridization mixture containing 10% dextran sulfate, 1% SDS, 1M sodium chloride, 50 mM Tris-HCl (pH 7.5) and 100 μg/ml denatured salmon sperm DNA. […] The membrane was then washed four times with 2×SSC, 0.1% SDS at room temperature, one time at 65° C. for 30 min., and one time at room temperature again for 5 min., and finally rinsed with 2×SSC at room temperature.

Compound	induction of Hsp70 by protease inhibitors (FIG. 3A) (Hsp70)	also measured
CC(=O)N[C@@H](CC(C)C)C(=O)N[C@@H](CC(C)C)C(=O)N[C@H](C=O)CCCNC(=N)N [Leupeptin, leupeptin]	ineffective	
CC(C)C[C@@H](C=O)NC(=O)[C@H](CC(C)C)NC(=O)[C@H](CC(C)C)NC(=O)OCc1ccccc1 [MG132, Cbz-leucyl-leucyl-leucinal] (Cbz-Leu-Leu-Leu-aldehyde)		toxicity to the cells (TCA-precipitable radioactivities) (HepG2 cells): without obvious toxicity; induction of Hsp70 levels by proteasome inhibitors (FIG. 9) (Hsp70; 4 hours, MG132 10 μM or 30 μM, lactacystin 10 μM, 30 min labeling): induced Hsp70 levels dramatically
O=S(=O)(F)Cc1ccccc1 [PMSF, phenylmethylsulfonyl fluoride]	No induction	
Cc1c2oc3c(C)ccc(C(=O)N[C@@H]4C(=O)N[C@H](C(C)C)C(=O)N5CCC[C@H]5C(=O)N(C)CC(=O)N(C)[C@@H](C(C)C)C(=O)O[C@@H]4C)c3nc-2c(C(=O)N[C@@H]2C(=O)N[C@H](C(C)C)C(=O)N3CCC[C@H]3C(=O)N(C)CC(=O)N(C)[C@@H](C(C)C)C(=O)O[C@@H]2C)c(N)c1=O [actinomycin D] (I: T[dV]P[Sar][NMeV] / II: T[dV]P[Sar][NMeV]; ester I:1-I:C, II:1-II:C; linker I:N-II:N via Actinocin(9to1))		effect of co-treatment on ALLN-induced increase in hsp72 mRNA (hsp70, i.e. hsp72, mRNA): abolished the effects of ALLN
CC(C)CC(=O)N[C@H](C(=O)N[C@H](C(=O)N[C@@H](CC(C)C)[C@@H](O)CC(=O)N[C@@H](C)C(=O)N[C@@H](CC(C)C)[C@@H](O)CC(=O)O)C(C)C)C(C)C [pepstatin] (Isovaleryl-VV[Sta]A[Sta]-OH)	No induction	
aprotinin	No induction	
